# Where two headings read alike, the source gives them in different places.
# Legend:
# [1] = test system: conditioned avoidance responding; test: Conditioned avoidance, shelf-jump response; type: in vivo, rat (male CD, Charles River); conditions: Rattus norvegicus, ip; single dose 40 mg/kg
# Source text: (§1) The antipsychotic properties of the compounds of this invention were established by standard pharmacologically accepted procedures involving conditioned avoidance studies in which trained male CD rats (Charles River), 400-450 g. body weight are exposed to a fifteen second warning tone (conditioned stimulus) continued for an additional fifteen seconds accompanied by electric shock. The rat can avoid the electric shock by jumping to an exposed shelf (shelf-jump response). A response during the initial warning tone is considered an avoidance response, while a response during shock delivery is considered as escape response. The shelf-jump response test procedure follows that of Herman et al., Comm. in Psychopharm., 3, pp. 165-171 (1979). The compounds of this invention were tested at a single dose (40 mg./kg. i.p.) in this procedure and were rated relative to their inhibition of conditioned avoidance responding. A similar test procedure (Discrete Trial) in which a lever press was substituted for a shelf-jump was used to establish the oral (p.o.) activity of the test compounds. Orally active compounds were tested over a full dose range and the Avoidance Block activities reported as "AB50 's" (mg./kg.).
# [2] = test system: conditioned avoidance responding; test: Conditioned avoidance, Discrete Trial (lever press); type: in vivo, rat (male CD, Charles River); conditions: for Conditioned Avoidance, Discrete Trial AB50: p.o.
# Source text: as §1
# [3] = target: T1, 5-HT1A serotonin receptor (Rattus norvegicus, UniProt P19327); test: Inhibition of [^3 H] 8-OH DPAT binding
# T1 construct: from tissue
# T1 sequence (P19327 1-422): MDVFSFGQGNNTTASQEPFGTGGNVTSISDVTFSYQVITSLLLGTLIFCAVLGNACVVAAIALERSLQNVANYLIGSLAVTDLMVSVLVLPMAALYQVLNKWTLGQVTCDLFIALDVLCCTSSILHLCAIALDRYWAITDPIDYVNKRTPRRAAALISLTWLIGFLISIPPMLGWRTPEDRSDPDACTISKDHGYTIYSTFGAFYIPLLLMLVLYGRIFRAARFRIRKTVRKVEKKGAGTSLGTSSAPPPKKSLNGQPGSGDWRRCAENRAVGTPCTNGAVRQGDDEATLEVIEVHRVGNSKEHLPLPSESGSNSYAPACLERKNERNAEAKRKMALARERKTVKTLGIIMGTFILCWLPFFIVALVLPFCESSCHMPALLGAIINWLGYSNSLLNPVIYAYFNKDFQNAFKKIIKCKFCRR
# Source text: 8-OH DPAT (dipropylaminotetralin) from the 5-HT1A serotonin receptor by the procedure of Hall et al., J. Neurochem.
# [4] = test system: apomorphine-induced stereotyped behavior and climbing; test: Antagonism of apomorphine-induced stereotyped behavior and climbing; type: in vivo, mouse (CF-1, Charles River); conditions: apomorphine 1 mg/kg s.c.; for ED50: Mus musculus, po; for Apomorphine Antagonism, Stereotypy ED50: p.o.
# Protocol: Readings are repeated every five minutes during a thirty minute test session. […] The ratio of the ED50 for stereotyped behavior of the ED50 for climbing is calculated.
# D-2 dopamine receptor = target: T2, D-2 dopamine receptor (Rattus norvegicus, UniProt P61169); test: [^3 H] Spiroperidol binding inhibition (D-2 dopamine receptor, homogenized limbic brain tissue); conditions: 1 μM
# T2 construct: from tissue; host or cells: homogenized limbic brain tissue
# T2 sequence (P61169 whole entry): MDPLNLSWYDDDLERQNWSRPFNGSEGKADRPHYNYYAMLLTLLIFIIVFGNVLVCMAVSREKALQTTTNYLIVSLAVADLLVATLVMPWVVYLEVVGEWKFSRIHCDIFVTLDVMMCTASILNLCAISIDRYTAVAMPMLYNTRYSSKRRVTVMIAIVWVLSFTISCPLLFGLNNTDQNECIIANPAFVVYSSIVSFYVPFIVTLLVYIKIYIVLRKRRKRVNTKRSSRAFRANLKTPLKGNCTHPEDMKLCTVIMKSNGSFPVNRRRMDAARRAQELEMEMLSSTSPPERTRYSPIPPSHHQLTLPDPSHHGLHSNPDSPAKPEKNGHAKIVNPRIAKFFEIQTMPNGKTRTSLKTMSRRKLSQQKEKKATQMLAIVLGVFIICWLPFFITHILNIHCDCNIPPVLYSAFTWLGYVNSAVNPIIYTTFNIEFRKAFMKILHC
# Source text: The results of this testing with compounds representative of the invention whose production is exemplified, infra, are as follows: […]
# [5] = read-out: Apomorphine Antagonism, Climbing ED50
# [6] = read-out: Apomorphine Antagonism, Stereotypy ED50
Ki [3] [nM],inhibition at 1 µM (D-2 dopamine receptor) [%],SMILES,inhibition in vivo at 40 mg/kg [1] [%],"ED50 ([2]; Rattus norvegicus, po, read-out: Conditioned Avoidance, Discrete Trial AB50) [mg/kg]","ED50 [4, 5] [mg/kg]","ED50 [4, 6] [mg/kg]","Conditioned Avoidance, Discrete Trial AB50 [2]","Apomorphine Antagonism, Stereotypy ED50 [4]"
15,97,"O=C1C2CCCC(O2)C(=O)N1CCCCN1CCN(c2cccc(C(F)(F)F)c2)CC1 [Example 19, 3-[4-[4-[3-(Trifluoromethyl)phenyl]-1-piperazinyl]butyl]-9-oxa-3-azabicyclo[3.3.1]nonane-2,4-dione]",~80,27,9.06,31,–,–
16,53,"CC1(C)C2CCC1C(=O)N(CCCCN1CCN(c3ncccn3)CC1)C2=O [Example 20, 3-[4-[4-(2-Pyrimidinyl)-1-piperazinyl]butyl]-8,8-dimethyl-3-azabicyclo[3.2.1]octane-2,4-dione]",> 20,–,0.2,–,inactive,inactive
15,63,"O=C1C2CC=CCC(C2)C(=O)N1CCCCN1CCN(c2ncccn2)CC1 [Example 21, 8-[4-[4-(2-Pyrimidinyl)-1-piperazinyl]butyl]-8-azabicyclo[4.3.1]dec-3-ene-7,9-dione]",> 20,–,11.1,–,inactive,inactive
4,38,"O=C1C2CCC(C2)C(=O)N1CCCN1CCN(c2cccc(C(F)(F)F)c2)CC1 [Example 22, 3-[3-[4-[3-(Trifluoromethyl)phenyl]-1-piperazinyl]propyl]-3-azabicyclo[3.2.1]octane-2,4-dione]",~80,–,29.5,43.3,weak,–

# Source: patent publication US4748240A, “Psychotropic bicyclic imides” (American Home Products Corporation, priority 1987, dated 1988)
